Structures can show the parent of a compound that is named as a salt.
Legend:
[1] = target: T1, rat histamine H3 receptor (Rattus norvegicus, UniProt Q9QYN8); experiment: Rat H3 radioligand binding ([3H]-N-alpha-methylhistamine, SPA); settings: membranes of CHO-A3 cells expressing rat H3 receptor; [3H]-N-alpha-methylhistamine about 1 nM
T1 construct: encoding the entire 445-amino-acid rat histamine H3 receptor; expressed in transfected cells; membrane preparation
Description: Cell line development and membrane preparation. The rat H3 receptor cDNA was PCR amplified from reverse-transcribed RNA pooled from rat thalamus, hypothalamus, striatum and prefrontal cortex with a sequence corresponding to by #338-1672 of Genbank file #NM_053506, encoding the entire 445-amino-acid rat histamine H3 receptor. This was engineered into the pIRES-neo3 mammalian expression vector, which was stably transfected into the CHO-A3 cell line (Euroscreen, Belgium), followed by clonal selection by limiting dilution. Cells were harvested and cell pellets were frozen (−80° C.). Cell pellets were resuspended in 5 mM Tris-HCl, pH 7.5 with […] and a cocktail of protease inhibitors (Complete Protease Inhibitior Tablets, Roche Diagnostics). Cells were disrupted using a polytron cell homogenizer and the suspension was centrifuged at 1000×g for 10 minutes at 4° C. The pellet was discarded and the supernatant centrifuged at 40,000×g for 30 min at 4° C. This membrane pellet was washed in membrane buffer containing 50 mM Tris-HCl, pH 7.5 with 0.6 mM EDTA, 5 mM MgCl2 and protease inhibitors, recentrifuged as above and the final pellet resuspended in membrane buffer plus 250 mM sucrose and frozen at −80° C.
(§1) Radioligand Binding. Membranes were resuspended in 50 mM Tris HCl (pH 7.4), 5 mM MgCl2, 0.1% BSA. The membrane suspensions (10 μg protein per well) were incubated in a 96 well microtiter plate with [^3H]-N-alpha-methylhistamine (approximately 1 nM final concentration), test compounds at various concentrations (0.01 nM-30 μM) and scintillation proximity beads (Perkin Elmer, FlashBlueGPCR Scintillating Beads) in a final volume of 80 μl for 4 hours at room temperature, protected from light. Non-specific binding was determined in the presence of 10 μM clobenpropit. Radioligand bound to receptor, and therefore in proximity to the scintillation beads, was measured using a MicroBeta scintillation counter.

human H3 receptor = target: T2, human H3 receptor (Homo sapiens, UniProt Q9Y5N1); experiment: Human H3 radioligand binding ([3H]-N-alpha-methylhistamine, SPA); settings: membranes of CHO cells expressing human H3 receptor; [3H]-N-alpha-methylhistamine about 1 nM
T2 construct: expressed in transfected cells; membrane preparation
Description: Methods: CHO cells stably expressing the human H3 receptor (GenBank: NM_007232) were harvested and cell pellets were frozen (−80° C.). Cell pellets were resuspended in 5 mM Tris-HCl, pH 7.5 with […] and a cocktail of protease inhibitors (Complete Protease Inhibitior Tablets, Roche Diagnostics). Cells were disrupted using a polytron cell homogenizer and the suspension was centrifuged at 1000×g for 10 minutes at 4° C. The pellet was discarded and the supernatant centrifuged at 40,000×g for 30 min at 4° C. This membrane pellet was washed in membrane buffer containing 50 mM Tris-HCl, pH 7.5 with 0.6 mM EDTA, 5 mM MgCl2 and protease inhibitors, recentrifuged as above and the final pellet resuspended in membrane buffer plus 250 mM sucrose and frozen at −80° C.
as §1

T1 sequence (Q9QYN8 whole entry): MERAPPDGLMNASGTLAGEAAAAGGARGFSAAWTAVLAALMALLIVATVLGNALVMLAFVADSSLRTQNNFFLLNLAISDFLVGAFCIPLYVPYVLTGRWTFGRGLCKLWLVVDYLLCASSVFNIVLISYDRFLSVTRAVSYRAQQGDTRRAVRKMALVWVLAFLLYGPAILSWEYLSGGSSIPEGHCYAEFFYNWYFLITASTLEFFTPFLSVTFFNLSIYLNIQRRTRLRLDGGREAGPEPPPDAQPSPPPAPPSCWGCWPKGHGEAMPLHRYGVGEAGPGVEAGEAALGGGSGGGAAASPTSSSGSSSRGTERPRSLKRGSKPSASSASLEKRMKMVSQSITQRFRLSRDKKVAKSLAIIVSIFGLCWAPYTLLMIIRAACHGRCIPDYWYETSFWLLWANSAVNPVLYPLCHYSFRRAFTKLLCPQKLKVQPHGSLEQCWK
T2 sequence (Q9Y5N1 whole entry): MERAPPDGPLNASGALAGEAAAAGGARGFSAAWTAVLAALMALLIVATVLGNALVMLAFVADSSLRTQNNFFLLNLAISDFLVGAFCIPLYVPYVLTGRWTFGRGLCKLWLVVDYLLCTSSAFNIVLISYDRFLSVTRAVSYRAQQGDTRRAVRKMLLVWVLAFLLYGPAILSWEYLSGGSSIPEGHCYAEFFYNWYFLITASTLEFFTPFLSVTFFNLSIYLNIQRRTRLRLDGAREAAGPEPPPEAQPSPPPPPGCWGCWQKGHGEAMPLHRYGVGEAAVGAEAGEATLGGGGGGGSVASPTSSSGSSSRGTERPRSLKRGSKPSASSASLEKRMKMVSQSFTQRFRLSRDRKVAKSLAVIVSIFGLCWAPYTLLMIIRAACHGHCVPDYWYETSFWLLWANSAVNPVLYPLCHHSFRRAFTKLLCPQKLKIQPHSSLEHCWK

| Ki [1] [nM] | Ki (human H3 receptor) [nM] | melting point [°C] | SMILES |
| --- | --- | --- | --- |
| < 200 | < 200 | 260 to 262 | O=c1cc(-c2ccccc2)c(-c2ccc3c(c2)COC2(CCN(C4CCC4)CC2)O3)n[nH]1 [Example 33] |
| < 200 | < 200 | – | Cc1c(-c2ccc(=O)[nH]n2)ccc2c1COC1(CCN(C3CCC3)CC1)O2 [Example 31] |
| – | – | > 300 | Cc1c(-c2ccc3c(c2)COC2(CCN(C4CCC4)CC2)O3)n[nH]c(=O)c1C (as salt: HCl) [Example 41] |
| < 200 | < 200 | – | CC1(C)CC(c2ccc3c(c2)COC2(CCN(C4CCC4)CC2)O3)=NNC1=O [Example 34, 1′-Cyclobutyl-6-[5H-4,4-dimethylpyridazin-3-one)-spiro[1,3-benzodioxine-2,4′-piperidine]] |
| – | – | 265 to 267 | Cc1cc(=O)[nH]nc1-c1ccc2c(c1)COC1(CCN(C3CCC3)CC1)O2 (as salt: HCl) [Example 40] |
| < 200 | < 200 | – | O=C1NN=C(c2ccc3c(c2)COC2(CCN(C4CCC4)CC2)O3)C2CC12 (stereo not drawn) [Example 37] |
| < 200 | < 200 | – | CC1CC(=O)NN=C1c1ccc2c(c1)COC1(CCN(C3CCC3)CC1)O2 (stereo not drawn) [Example 39] |
| < 200 | < 200 | – | Cc1c(-c2ccc3c(c2)COC2(CCN(C4CCC4)CC2)O3)n[nH]c(=O)c1C [Example 41] |
| – | – | 271 to 274 | O=C1NN=C(c2ccc3c(c2)COC2(CCN(C4CCC4)CC2)O3)C2CCC12 (stereo not drawn) (as salt: HCl) [Example 38] |
| < 200 | < 200 | – | Cc1cc(=O)[nH]nc1-c1ccc2c(c1)COC1(CCN(C3CCC3)CC1)O2 [Example 40] |
| – | – | 255 to 257 | Cc1c(-c2ccc(=O)[nH]n2)ccc2c1COC1(CCN(C3CCC3)CC1)O2 (as salt: HCl) [Example 31] |
| – | – | > 300 | O=C1NN=C(c2ccc3c(c2)COC2(CCN(C4CCC4)CC2)O3)C2CC12 (stereo not drawn) (as salt: HCl) [Example 37] |
| – | – | 209 to 214 | CC1CC(=O)NN=C1c1ccc2c(c1)COC1(CCN(C3CCC3)CC1)O2 (stereo not drawn) (as salt: HCl) [Example 39] |
| < 200 | < 200 | – | O=C1NN=C(c2ccc3c(c2)COC2(CCN(C4CCC4)CC2)O3)C2CCC12 (stereo not drawn) [Example 38] |

Second part, the compound before the results:

| SMILES | Ki [1] [nM] | Ki (human H3 receptor) [nM] | melting point [°C] |
| --- | --- | --- | --- |
| CC(C)N1CCC2(CCc3cc(C4=NNC(=O)C(C)(C)C4)ccc3O2)CC1 [Example 14] | < 200 | < 200 | 210 to 213 |
| O=C1NN=C(c2ccc3c(c2)CC2(CCN(C4CCC4)CC2)O3)C2CC12 (stereo not drawn) [Example 2, l′-cyclobutyl-5-(3,4-diaza-bicyclo[4.1.0]hepten-2-one-5-yl)-spiro[benzofuran-2(3H),4′-piperidine]] | < 200 | < 200 | 189 to 191 |
| O=C1NN=C(c2ccc3c(c2)CCC2(CCN(C4CCC4)CC2)O3)C2CCC12 (single isomer, unassigned) [Example 23] | < 200 | < 200 | – |
| O=C1NN=C(c2ccc3c(c2)CCC2(CCN(C4CCC4)CC2)O3)C2CCC12 (single isomer, unassigned) [Example 22] | < 200 | < 200 | – |
| Cn1nc(-c2ccc3c(c2)CCC2(CCN(C4CCC4)CC2)O3)ccc1=O [Example 20] | < 200 | < 200 | 147 to 149 |
| Cc1cc(=O)[nH]nc1-c1ccc2c(c1)CCC1(CCN(C3CCC3)CC1)O2 [Example 13, 1′-Cyclobutyl-6-(5-methyl-2H-pyridazin-3-one-6-yl)-spiro[3,4-dihydrobenzopyran-2,4′-piperidine]] | < 200 | < 200 | 270 to 272 |
| Cc1cc2c(cc1-c1ccc(=O)[nH]n1)COC1(CCN(C3CCC3)CC1)O2 [Example 29] | 200 to 1000 | 200 to 1000 | 230 to 232 |
| Cc1cc2c(cc1-c1ccc(=O)n(C)n1)COC1(CCN(C3CCC3)CC1)O2 [Example 30] | < 200 | < 200 | – |
| O=C1NN=C(c2ccc3c(c2)CCC2(CCN(C4CCCC4)CC2)O3)C2CC12 (stereo not drawn) [Example 8, 1′-Cyclopentyl-6-(3,4-diaza-bicyclo[4.1.0]hept-4-en-2-one-5-yl)-spiro[3,4-dihydrobenzopyran-2,4′-piperidine]] | < 200 | < 200 | – |
| O=c1cc(-c2ccc3c(c2)COC2(CCN(C4CCC4)CC2)O3)cn[nH]1 (as salt: HCl) [Example 26] | – | – | 258 to 262 |
| O=c1cccnn1CCCOc1ccc2c(c1)CCC1(CCN(C3CCC3)CC1)O2 [Example 24, 1′-Cyclobutyl-6-(3-(2-pyridazin-3-one)propyloxy]-spiro[3,4-dihydrobenzopyran-2,4′-piperidine]] | < 200 | < 200 | – |
| O=C1NN=C(c2ccc3c(c2)CCC2(CCN(C4CCC4)CC2)O3)C2CCC12 (racemic) [Example 10, 1′-Cyclobutyl-6-(3,4-diaza-bicyclo[4.2.0]oct-4-en-2-one-5-yl)-spiro[3,4-dihydrobenzopyran-2,4′-piperidine]] | < 200 | < 200 | – |
| O=c1cccnn1CC(O)COc1ccc2c(c1)CCC1(CCN(C3CCC3)CC1)O2 (stereo not drawn) (as salt: HCl) [Example 25, 1′-Cyclobutyl-6-(3-(2-pyridazin-3-one)-2-hydroxypropyloxy]-spiro[3,4-dihydrobenzopyran-2,4′-piperidine]] | – | – | 201 to 203 |
| CC1(C)CC(c2ccc3c(c2)CCC2(CCN(C4CCC4)CC2)O3)=NNC1=O [Example 11, 1′-Cyclobutyl-6-(4,4-dimethyl-4,5-dihydro-2H-pyridazin-3-one-6-yl)-spiro[3,4-dihydrobenzopyran-2,4′-piperidine]] | < 200 | < 200 | – |
| O=c1cc(-c2ccc3c(c2)COC2(CCN(C4CCC4)CC2)O3)cn[nH]1 [Example 26] | < 200 | < 200 | – |
| Cc1cc2c(cc1-c1ccc(=O)n(C)n1)COC1(CCN(C3CCC3)CC1)O2 (as salt: HCl) [Example 30] | – | – | 269 to 270 |
| CC(C)N1CCC2(CCc3cc(C4=NNC(=O)C5CC45)ccc3O2)CC1 (stereo not drawn) [Example 9] | < 200 | < 200 | – |
| O=C1NN=C(c2ccc3c(c2)CCC2(CCN(C4CCC4)CC2)O3)C2CC12 (stereo not drawn) [Example 7, 1′-Cyclobutyl-6-(3,4-diaza-bicyclo[4.1.0]hept-4-en-2-one-5-yl)-spiro[3,4-dihydrobenzopyran-2,4′-piperidine]] | < 200 | < 200 | – |
| O=C1NN=C(c2ccc3c(c2)CCC2(CCNCC2)O3)C2CC12 (stereo not drawn) [Example 6, 6-(3,4-diaza-bicyclo[4.1.0]hept-4-en-2-one-5-yl)-spiro[3,4-dihydrobenzopyran-2,4′-piperidine]] | > 1000 | > 1000 | – |
| O=c1cccnn1CC(O)COc1ccc2c(c1)CCC1(CCN(C3CCC3)CC1)O2 (stereo not drawn) [Example 25, 1′-Cyclobutyl-6-(3-(2-pyridazin-3-one)-2-hydroxypropyloxy]-spiro[3,4-dihydrobenzopyran-2,4′-piperidine]] | < 200 | < 200 | – |
| O=c1cccnn1CCCOc1ccc2c(c1)CCC1(CCN(C3CCC3)CC1)O2 (as salt: HCl) [Example 24, 1′-Cyclobutyl-6-(3-(2-pyridazin-3-one)propyloxy]-spiro[3,4-dihydrobenzopyran-2,4′-piperidine]] | – | – | 207 to 209 |
